# Results from ChEMBL document CHEMBL4411258, “Novel natural compounds from endophytic fungi with anticancer activity” (Eur J Med Chem, 2018).
# How the values were obtained:
# Bel-7402 = test: Cytotoxicity against human Bel7402 cells after 48 hrs by MTT assay; assay type: functional, cell-based; conditions: Bel-7402, 48 h
# HeLa = test: Cytotoxicity against human HeLa cells after 48 hrs by MTT assay; assay type: functional, cell-based
# MMQ = test: Cytotoxicity against rat MMQ cells by MTT assay; assay type: functional, cell-based
# GH3 = test: Cytotoxicity against rat GH3 cells by MTT assay; assay type: functional, cell-based
# A2780cisR [1] = test: Cytotoxicity against human A2780cisR cells after 72 hrs by MTT assay; assay type: functional, cell-based
# A2780 [2] = test: Cytotoxicity against human A2780 cells after 72 hrs by MTT assay; assay type: functional, cell-based; conditions: A2780, 72 h
# A2780S = test: Cytotoxicity against human A2780S cells after 72 hrs by CyQuant dye-based assay; assay type: functional, cell-based
# A2780cisR [3] = test: Cytotoxicity against human A2780cisR cells after 72 hrs by CyQuant dye-based assay; assay type: functional, cell-based
# HL-60 [4] = test: Cytotoxicity against human HL60 cells; assay type: functional, cell-based
# [5] = Cytotoxicity against human KATO III cells after 72 hrs by MTT assay; assay type: functional, cell-based
# NCI-H187 = test: Cytotoxicity against human NCI-H187 cells by resazurin microplate assay; assay type: functional, cell-based
# Vero [6] = test: Cytotoxicity against African green monkey Vero cells by resazurin microplate assay; assay type: cell-based; conditions: Chlorocebus sabaeus
# MCF7 [7] = test: Cytotoxicity against human MCF7 cells by resazurin microplate assay; assay type: functional, cell-based
# SW480 [8] = test: Cytotoxicity against human SW480 cells by MTT assay; assay type: functional, cell-based
# BT-549 = test: Cytotoxicity against human BT549 cells after 48 hrs by neutral red dye based assay; assay type: functional, cell-based; conditions: BT-549, 48 h
# SK-OV-3 = test: Cytotoxicity against human SKOV3 cells after 48 hrs by neutral red dye based assay; assay type: functional, cell-based; conditions: SK-OV-3, 48 h
# KB = test: Cytotoxicity against human KB cells after 48 hrs by neutral red dye based assay; assay type: functional, cell-based
# MCF7 [9] = test: Cytotoxicity against human MCF7 cells after 48 hrs by sulforhodamine B assay; assay type: functional, cell-based; conditions: Homo sapiens, MCF7, 48 h
# NCI-H460 = test: Cytotoxicity against human NCI-H460 cells after 48 hrs by sulforhodamine B assay; assay type: functional, cell-based; conditions: Homo sapiens, NCI-H460, 48 h
# HCT-116 [10] = test: Cytotoxicity against human HCT116 cells after 48 hrs by sulforhodamine B assay; assay type: functional, cell-based; conditions: HCT-116, 48 h
# MIA PaCa-2 = test: Cytotoxicity against human MIAPaCa2 cells after 48 hrs by MTT assay; assay type: functional, cell-based; conditions: MIA PaCa-2, 48 h
# A549 [11] = test: Cytotoxicity against human A549 cells after 48 hrs by MTT assay; assay type: functional, cell-based; conditions: Homo sapiens, A549, 48 h; read-out: IC50
# MCF7 [12] = test: Cytotoxicity against human MCF7 cells after 48 hrs by MTS assay; assay type: functional, cell-based; conditions: MCF7, 48 h
# HL-60 [13] = test: Cytotoxicity against human HL60 cells after 48 hrs by MTT assay; assay type: functional, cell-based; conditions: HL-60, 48 h
# SMMC-7721 [14] = test: Cytotoxicity against human SMMC7721 cells after 48 hrs by MTT assay; assay type: functional, cell-based; conditions: Homo sapiens, SMMC-7721, 48 h; read-out: IC50
# SW480 [15] = test: Cytotoxicity against human SW480 cells after 48 hrs by MTT assay; assay type: functional, cell-based; conditions: SW480, 48 h
# RPMI-8226 = test: Cytotoxicity against human RPMI8226 cells after 48 hrs by MTT assay; assay type: functional, cell-based; conditions: RPMI-8226, 48 h
# HL-60 [16] = test: Cytotoxicity against human HL60 cells assessed as inhibition of cell growth at 40 uM by MTS assay; assay type: functional; conditions: read-out: GI
# A549 [17] = test: Cytotoxicity against human A549 cells assessed as inhibition of cell growth at 40 uM by MTS assay; assay type: functional; conditions: read-out: GI
# SMMC-7721 [18] = test: Cytotoxicity against human SMMC7721 cells assessed as inhibition of cell growth at 40 uM by MTS assay; assay type: functional; conditions: read-out: GI
# MCF7 [19] = test: Cytotoxicity against human MCF7 cells assessed as inhibition of cell growth at 40 uM by MTS assay; assay type: functional; conditions: read-out: GI
# SW480 [20] = test: Cytotoxicity against human SW480 cells assessed as inhibition of cell growth at 40 uM by MTS assay; assay type: functional; conditions: read-out: GI
# MCF7 [21] = test: Cytotoxicity against human MCF7 cells by MTT assay; assay type: functional, cell-based
# U2OS = test: Cytotoxicity against human U2OS cells by MTT assay; assay type: functional, cell-based
# Vero [22] = test: Cytotoxicity against African green monkey Vero cells; assay type: cell-based; conditions: Chlorocebus sabaeus
# L5178Y = test: Cytotoxicity against mouse L5178Y cells by MTT assay; assay type: functional, cell-based
# A2780 [23] = test: Cytotoxicity against human cisplatin-sensitive A2780 cells by MTT assay; assay type: functional, cell-based
# HCT-116 [24] = test: Cytotoxicity against human HCT116 cells after 48 hrs by MTT assay; assay type: functional, cell-based; conditions: HCT-116, 48 h
# HepG2 = test: Cytotoxicity against human HepG2 cells after 48 hrs by MTT assay; assay type: functional, cell-based; conditions: HepG2, 48 h
# [25] = Antiproliferative activity against HUVEC assessed as growth inhibition; assay type: cell-based; conditions: human, HUVEC cells
# K562 = test: Antiproliferative activity against human K562 assessed as growth inhibition; assay type: functional
compound,measurement,setting,value
COC(=O)[C@]1(OC)CCC(=O)N1Nc1ccc(OC)cc1OC,IC50,Bel-7402,8.1 µM
same,IC50,HeLa,15.5 µM
Cc1cc(O)cc2c1Oc1c(Cc3ccc(O)cc3)c(O)cc(C)c1C(=O)O2,IC50,MMQ,3.09 µM
same,IC50,GH3,3.64 µM
O=C1N2[C@H]3C(=CC=C[C@@H]3O)C[C@]23SS[C@]12C[C@H]1[C@@H]([C@@H](O)C=C[C@@H]1O)N2C3=O,IC50,A2780cisR [1],0.661 µM
same,IC50,A2780 [2],0.664 µM
CCCCC/C=C/C1=C(CO)C(=O)[C@H]2O[C@@]2(C/C=C(\C)C(=O)O)C1=O,IC50,A2780S,3.3 µM
same,IC50,A2780cisR [3],5.1 µM
COc1cc2c(c3c1Cc1c(cc(O)c(CO)c1C(=O)O)O3)C[C@H]1[C@H](C)CO[C@@]1(C)O2,IC50,HL-60 [4],12.4 µM
CC(=O)O[C@H]1C=CC(=O)O[C@H]1[C@H]1[C@H]2C=CC=C[C@](O)(O2)[C@H]1C,IC50,[5],1.95 to 40.2 µg/mL
same,IC50,NCI-H187,1.95 to 40.2 µg/mL
same,IC50,Vero [6],1.95 to 40.2 µg/mL
same,IC50,MCF7 [7],1.95 to 40.2 µg/mL
CC1=C(C=O)[C@@]2(C)CCCC(C)(C)[C@@H]2C[C@@H]1O,IC50,SW480 [8],8.72 µM
C=C(CC[C@@H](C)[C@H]1CC=C2C3=C([C@@H](O)[C@H](OC(C)=O)[C@@]21C)[C@@]1(C)C[C@@H](O)[C@H](OC(=O)c2ccc(O)cc2)C(C)(C)[C@@H]1CC3)C(C)C,IC50,BT-549,2.46 µM
same,IC50,SK-OV-3,3.01 µM
same,IC50,KB,2.54 µM
C/C=C/[C@@H]1OC(=O)C2=C[C@H](O)[C@@H](/C=C/C)O[C@H]21,IC50,MCF7 [9],22.5 µM
same,IC50,NCI-H460,1 µM
same,IC50,HCT-116 [10],6.2 µM
CCCCC/C=C1/C(=O)OC(=O)[C@@H]1C,IC50,MIA PaCa-2,16 µM
COC(=O)C1=C[C@@H](C)C[C@H]2CC[C@@H](O)[C@@]12O,IC50,A549 [11],3.6 to 16.2 µM
same,IC50,MCF7 [12],3.6 to 16.2 µM
same,IC50,HL-60 [13],3.6 to 16.2 µM
same,IC50,SMMC-7721 [14],3.6 to 16.2 µM
same,IC50,SW480 [15],3.6 to 16.2 µM
same,IC50,RPMI-8226,3.6 to 16.2 µM
C=C1[C@@H](C)[C@H]2[C@H](Cc3c[nH]c4ccccc34)NC(=O)[C@@]2(C(=O)CCC(=O)OC)[C@@H](/C=C/CC(C)/C=C(\C)C=O)[C@@H]1O (some centres not stated),inhibition of growth at 40 µM,HL-60 [16],96%
same,inhibition of growth at 40 µM,A549 [17],67%
same,inhibition of growth at 40 µM,SMMC-7721 [18],51%
same,inhibition of growth at 40 µM,MCF7 [19],58%
same,inhibition of growth at 40 µM,SW480 [20],61%
Cc1cc(O)c(C(=O)c2cc(O)cc(O)c2C=O)c(O)c1,IC50,MCF7 [21],16.8 µM
same,IC50,U2OS,11.6 µM
C[C@H]1C/C=C/[C@H]2[C@@H]3O[C@]3(C)[C@@H](C)[C@H]3[C@H](Cc4ccc(O)cc4)NC(=O)[C@]32OC(=O)O/C=C/[C@@](C)(O)C1=O,IC50,Vero [22],1.19 µM
C=C1[C@@H](C)[C@H]2[C@H](Cc3ccc(O)cc3)NC(=O)[C@]23[C@H](O)/C=C/[C@@H](C)C[C@@H](C)C/C=C/[C@H]3[C@@H]1O,IC50,L5178Y,2.55 µM
same,IC50,A2780 [23],6.97 µM
COc1c(OC)c2c(c(OC)c1-c1c[nH]c3ccccc13)O[C@@H]1Nc3ccccc3[C@]21OC,IC50,A549 [11],3.5 µg/mL
same,IC50,HCT-116 [24],6.4 µg/mL
same,IC50,HepG2,2.5 µg/mL
O=C1c2cccc(O)c2[C@H]2C[C@@H]1c1ccc3cccc(O)c3c1O2,GI50,[25],98.4 µM
same,GI50,K562,85.5 µM
